Results taken from US20050059585A1, “Methionine aminopeptidase-2 inhibitors and methods of use thereof” (Praecis Pharmaceuticals Inc., priority 2000, published 2005).

How the values were obtained:
Assay type in all cases: cell-based
[1] = test system: human umbilical vein endothelial cells (HUVEC); assay: human endothelial cell growth assay (Huvec assay); conditions: Homo sapiens, HUVEC; read-out: IC50 (pM), Huvec Assay
Experimental: For the human endothelial cell growth assay, human umbilical vein endothelial cells (HUVEC) were maintained in Clonetics endothelial growth medium (EGM) in a 37° C. humidified incubator. Cells were detached with trypsin and pelleted by centrifugation at 300×g for 5 minutes at room temperature. HUVEC were added to 96-well plates at 5,000 cells/well. After incubating for 6 hours, the medium was replaced with 0.2 ml fresh EGM supplemented with 0.5 nM bFGF and the desired concentration of test angiogenesis inhibitor compound. Test angiogenesis inhibitor compounds were initially dissolved in ethanol at stock concentrations of either 10 mM or 0.1 mM, and subsequently diluted in EGM to obtain concentrations from […] to 10 μM. After 48 hours at 37° C., the medium was replaced with fresh bFGF-supplemented EGM and test angiogenesis inhibitor compound. Following incubation for an additional 48 hours at 37° C. MTT (3-[4,5-dimethylthiazol-2-yl]-2,5-diphenyl-tetrazolium bromide) was added to 1 mg/ml. After 2-4 hours at 37° C. the medium was replaced with 0.1 ml/well isopropanol. The plates were placed on a shaker for 15 minutes at room temperature and analyzed in a Labsystems Multiskan plate spectrophotometer at an optical density of 570 nm.

[2] = test system: Pfeiffer; assay: Inhibition of GC derived B cell lymphoma lines in culture
[3] = test system: SR; assay: tumor cell line panel, SRB growth assay; conditions: Homo sapiens, Leukemia, 48 hours
Experimental: (§1) The compound of example 5 was also evaluated against a panel of cancer cell lines (Alley, M.C. et al. […] Cancer Research 48: 589-601; Grever, M. R., et al. (1992) Seminars in Oncology, Vol. 19, No. 6, pp 622-638; Boyd, M. R., and Paull, K. D. (1995) Drug Development Research 34: 91-109). The human tumor cell lines of the cancer screening panel were grown in RPMI 1640 medium containing 5% fetal bovine serum and 2 mM L-glutamine. Cells were inoculated into 96 well microtiter plates in 100 μL at plating densities ranging from 5,000 to 40,000 cells/well depending on the doubling time of individual cell lines. After cell inoculation, the microtiter plates were incubated at 37° C., 5 % CO2, 95 % air and 100 % relative humidity for 24 hours prior to addition of experimental drugs.
(§2) After the 24 hour incubation period, two plates of each cell line were fixed in situ with TCA, to represent a measurement of the cell population for each cell line at the time of drug addition (Tz). Experimental drugs were solubilized in dimethyl sulfoxide at 400-fold the desired final maximum test concentration and stored frozen prior to use. At the time of drug addition, an aliquot of frozen concentrate was thawed and diluted to twice the desired final maximum test concentration with complete medium containing 50 μg/ml gentamicin. Additional four, 10-fold or ½ log serial dilutions were made to provide a total of five drug concentrations plus control. Aliquots of 100 μl of these different drug dilutions were added to the appropriate microtiter wells already containing 100 μl of medium, resulting in the required final drug concentrations.
(§3) Following drug addition, the plates were incubated for an additional 48 hours at 37° C., 5 % CO2, 95 % air, and 100 % relative humidity. For adherent cells, the assay was terminated by the addition of cold TCA. Cells were fixed in situ by the gentle addition of 50 μl of cold 50 % (w/v) TCA (final concentration, 10% TCA) and incubated for 60 minutes at 4° C. The supernatant was discarded, and the plates were washed five times with tap water and air dried. Sulforhodamine B (SRB) solution (100 μl) at 0.4 % (w/v) in 1 % acetic acid were added to each well, and plates were incubated for 10 minutes at room temperature. After staining, unbound dye was removed by washing five times with 1 % acetic acid and the plates were air dried. Bound stain was subsequently solubilized with 10 mM trizma base, and the absorbance was read on an automated plate reader at a wavelength of 515 nm. For suspension of the cells, the methodology used was the same except that the assay was terminated by fixing settled cells at the bottom of the wells by gently adding 50 μl of 80 % TCA (final concentration, 16% TCA). Using the seven absorbance measurements [time zero, (Tz), control growth, (C), and test growth in the presence of drug at the five concentration levels (Ti)], the percentage growth was calculated at each of the drug concentrations levels.
(§4) Percentage growth inhibition was calculated as: [(Ti−Tz)/(C−Tz)]×100 for concentrations for which Ti>/=Tz [(Ti−Tz)/Tz]×100 for concentrations for which Ti<Tz.
(§5) Growth inhibition of 50% (GI50) was calculated from [(Ti−Tz)/(C−Tz)]×100=50, which is the drug concentration resulting in a 50% reduction in the net protein increase (as measured by SRB staining) in control cells during the drug incubation. The G150 was calculated for each of the cell lines if the level of activity is reached; however, if the effect was not reached or is exceeded, the value for that parameter is expressed as greater or less than the maximum (10^−4 M) or minimum (10^−8 M) concentration tested.

[4] = test system: NCI-H522; assay: tumor cell line panel, SRB growth assay; conditions: Homo sapiens; NCI-H522, Non-Small Cell Lung, 48 hours
Experimental: as §1, §2, §3, §4, §5

[5] = test system: HCT-15; assay: tumor cell line panel, SRB growth assay; conditions: Homo sapiens; HCT-15, Colon, 48 hours
Experimental: as §1, §2, §3, §4, §5

[6] = test system: NCI-H322M; assay: tumor cell line panel, SRB growth assay; conditions: Homo sapiens, Non-Small Cell Lung, 48 hours
Experimental: as §1, §2, §3, §4, §5

[7] = test system: TK-10; assay: tumor cell line panel, SRB growth assay; conditions: Homo sapiens; TK-10, Renal, 48 hours
Experimental: as §1, §2, §3, §4, §5

[8] = test system: SNB-19; assay: tumor cell line panel, SRB growth assay; conditions: Homo sapiens; SNB-19, CNS, 48 hours
Experimental: as §1, §2, §3, §4, §5

[9] = test system: SW-620; assay: tumor cell line panel, SRB growth assay; conditions: Homo sapiens; SW-620, Colon, 48 hours
Experimental: as §1, §2, §3, §4, §5

[10] = test system: K-562; assay: tumor cell line panel, SRB growth assay; conditions: Homo sapiens, K562; K-562, Leukemia, 48 hours
Experimental: as §1, §2, §3, §4, §5

[11] = test system: UACC-257; assay: tumor cell line panel, SRB growth assay; conditions: Homo sapiens; UACC-257, Melanoma, 48 hours
Experimental: as §1, §2, §3, §4, §5

[12] = test system: MOLT-4; assay: tumor cell line panel, SRB growth assay; conditions: Homo sapiens; MOLT-4, Leukemia, 48 hours
Experimental: as §1, §2, §3, §4, §5

[13] = test system: H2; assay: Inhibition of GC derived B cell lymphoma lines in culture
[14] = test system: SU-DHL-16; assay: as above; conditions: Homo sapiens, SU-DHL-16, 120 h, read-out: Growth Inhibition Relative to Vehicle Control, GI50%

## CO[C@@H]1[C@H](OC(=O)N[C@@H](C(N)=O)C(C)C)CC[C@]2(CO2)[C@H]1[C@@]1(C)O[C@@H]1CC=C(C)C [Example 5, (1-Carbamoyl-2-methyl-propyl)-carbamic acid-(3R, 4S, 5S, 6R )-5-methoxy-4-[(2R, 3R)-2-methyl-3-(3-methyl-but-2-enyl)-oxiranyl]-1-oxa-spiro[2.5]oct-6-yl ester]
[1]
  IC50: 93 pM
[2]; DLBCL, 0.01-100 nM, five or six days
  Growth Inhibition Relative to Vehicle Control, Maximum Inhibition: 54%
[2]; Homo sapiens, read-out: Growth Inhibition Relative to Vehicle Control, GI50%
  GI50: 0.27 nM
[3]
  GI50: < 10 nM
[4]
  GI50: 12900 nM
[5]
  GI50: 7130 nM
[6]
  GI50: 46.8 nM
[7]
  GI50: 54.3 nM
[8]
  GI50: < 10 nM
[9]
  GI50: > 100000 nM
[10]
  GI50: 64400 nM
[11]
  GI50: 1480 nM
[12]
  GI50: 35600 nM
[13]; B-cell, read-out: Growth Inhibition Relative to Vehicle Control, GI50%
  GI50: 0.16 nM
[13]; H2, FL, 0.01-100 nM, five or six days
  Growth Inhibition Relative to Vehicle Control, Maximum Inhibition: 59%
[14]
  GI50: 1.9 nM
